The values that follow come from ChEMBL document CHEMBL5729731, “Imidazole-containing inhibitors of ALK2 kinase” (2023).

The experiment concerns the target T1, Activin receptor type-1 (Homo sapiens, UniProt Q04771).
T1 sequence (Q04771 whole entry): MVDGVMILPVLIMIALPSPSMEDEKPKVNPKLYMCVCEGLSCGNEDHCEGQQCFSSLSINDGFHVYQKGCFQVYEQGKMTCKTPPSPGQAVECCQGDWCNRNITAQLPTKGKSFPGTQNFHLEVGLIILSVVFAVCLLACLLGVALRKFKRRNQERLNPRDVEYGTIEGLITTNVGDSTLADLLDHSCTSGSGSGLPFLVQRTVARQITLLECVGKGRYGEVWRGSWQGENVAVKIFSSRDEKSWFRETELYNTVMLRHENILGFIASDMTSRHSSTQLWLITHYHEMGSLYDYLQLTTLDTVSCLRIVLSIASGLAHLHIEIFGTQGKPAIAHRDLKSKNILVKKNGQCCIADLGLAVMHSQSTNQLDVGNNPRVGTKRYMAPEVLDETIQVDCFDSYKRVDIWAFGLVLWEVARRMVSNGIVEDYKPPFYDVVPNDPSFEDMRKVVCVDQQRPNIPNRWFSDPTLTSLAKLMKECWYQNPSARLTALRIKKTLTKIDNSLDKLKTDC
Nature of the experiment: Biochemical assay: Biochemical assays to measure the inhibitory effects of the compounds were performed by ThermoFisher Scientific (Life Technologies). ALK2 inhibition was tested using LanthaScreen Eu Kinase Binding Assay screening protocol. (In general: TR-FRET usually uses a lanthanide donor and a delayed reading to cut background.)

As for `COc1cc(-n2cnc(Nc3nc(-c4cccc(CO)c4)nc4sc(CO)cc34)c2)cc(OC)c1OC`, the IC50 (in general, the concentration needed to halve the response being measured) is below 100 nM.
